Reference: patent US7211576B2, “Diaminothiazoles” (Hoffmann-La Roche Inc., priority 2004, dated 2007)

Tests used:
human cyclin E-CDK2 = human cyclin E-CDK2 (Homo sapiens, UniProt P24941); experiment: FlashPlate kinase assay, cyclin E-CDK2; type: biochemical; conditions: Rb protein substrate, 1 μM ATP, 33P-ATP, 30 minutes room temperature
Description: (§1) To determine inhibition of Cdk4, Cdk2 and Cdk1 activity, kinase assays were conducted using FlashPlate™ assays (NEN™-Life Science Products). FlashPlate assays were performed using recombinant human cyclin B-CDK1, human cyclin E-CDK2 or human cyclin D1-CDK4 complexes. GST-cyclinE (GST-cycE), CDK2, GST-cyclinB (GST-cycB), CDK1, GST-CDK4 and cyclin D1 (cycD1) cDNA clones in baculovirus vectors were provided by Dr. W. Harper at the Baylor College of Medicine, Houston, Tex. Proteins were co-expressed in High Five™ insect cells and the complex was purified on glutathione Sepharose resin (Pharmacia, Piscataway, N.J.) as previously described (Harper, J. W. et al. Cell 1993, 75, 805–816). A 6×-Histidine tagged truncated form of retinoblastoma (Rb) protein (amino acid 386–928) was used as the substrate for the cycD1-CDK4, cycB-CDK1 and the cycE-CDK2 assays (the expression plasmid was provided by Dr. Veronica Sullivan, Department of Molecular Virology, Roche Research Centre, Welwyn Garden City, United Kingdom). The Rb protein is a natural substrate for phosphorylation by CDK4, CDK2 and CDK1 (see Herwig and Strauss Eur. J. Biochem. Vol. 246 (1997) pp. 581–601 and the references cited therein).
(§2) The expression of the 62Kd protein was under the control of an IPTG inducible promoter in an M15 E. coli strain. Cells were lysed by sonication and purification was carried out by binding lysates at pH 8.0 to a Ni-chelated agarose column pretreated with 1 mM imidazole. The resin was then washed several times with incrementally decreasing pH buffers to pH 6.0, and eluted with 500 mM imidazole. Eluted protein was dialysed against 20 mM HEPES pH 7.5, 30% glycerol, 200 mM NaCl, and 1 mM DTT. Purified Rb fusion protein stocks were quantitated for protein concentration, aliquoted, and stored at −70° C.
(§3) For all three kinase assays reported herein, 96-well FlashPlates were coated with Rb protein at 10 μg/ml, using 100 μl per well. Plates were incubated at 4° C. overnight or at room temperature for 3 hours on a shaker. To control for nonspecific phosphorylation, one row of wells was coated with 100 μl/well coating buffer (20 mM HEPES, 0.2 M NaCl). Plates were then washed twice with wash buffer (0.01% Tween 20 in phosphate-buffered saline). Compounds to be tested (“test compounds”) were added to the wells at 5× final concentration. Reactions were initiated by immediate addition of 40 μl reaction mix (25 mM HEPES, 20 mM MgCl2, 0.002% Tween 20, 2 mM DTT, 1 μM ATP, 4 nM ^33P-ATP) and a sufficient amount of enzyme to give counts that were at least 10-fold above background. Plates were incubated at room temperature on a shaker for 30 minutes. Plates were washed four times with the wash buffer, sealed, and counted on the TopCount scintillation counter (Packard Instrument Co., Downers Grove, Ill.]. The percent inhibition of Rb phosphorylation, which is a measure of the inhibition of CDK activity, was determined according to the following formula:
(§4) [formula] where “test compound” refers to the average counts per minute of the test duplicates, “nonspecific” refers to the average counts per minute when no CyclinD/Cdk4, etc., was added, and “total” refers to the average counts per minute when no compound was added. The IC50 value is the concentration of test compound that reduces by 50% the protein-kinase induced incorporation of the radiolabel under the test conditions described.

human cyclin B-CDK1 = human cyclin B-CDK1 (Homo sapiens, UniProt P06493); experiment: FlashPlate kinase assay, cyclin B-CDK1; type: biochemical; conditions: Rb protein substrate, 1 μM ATP, 33P-ATP, 30 minutes room temperature
Chain of human cyclin B-CDK1 (P06493 whole entry): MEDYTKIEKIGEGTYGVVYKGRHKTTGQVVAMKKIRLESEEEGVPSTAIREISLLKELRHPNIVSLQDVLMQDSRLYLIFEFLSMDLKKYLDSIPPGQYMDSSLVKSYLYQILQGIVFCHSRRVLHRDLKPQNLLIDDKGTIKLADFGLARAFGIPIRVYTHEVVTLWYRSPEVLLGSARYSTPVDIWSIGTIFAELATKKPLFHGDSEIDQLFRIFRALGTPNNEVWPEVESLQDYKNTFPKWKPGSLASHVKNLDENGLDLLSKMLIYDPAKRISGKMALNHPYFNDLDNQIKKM
Chain of human cyclin B-CDK1 (P14635 whole entry partner): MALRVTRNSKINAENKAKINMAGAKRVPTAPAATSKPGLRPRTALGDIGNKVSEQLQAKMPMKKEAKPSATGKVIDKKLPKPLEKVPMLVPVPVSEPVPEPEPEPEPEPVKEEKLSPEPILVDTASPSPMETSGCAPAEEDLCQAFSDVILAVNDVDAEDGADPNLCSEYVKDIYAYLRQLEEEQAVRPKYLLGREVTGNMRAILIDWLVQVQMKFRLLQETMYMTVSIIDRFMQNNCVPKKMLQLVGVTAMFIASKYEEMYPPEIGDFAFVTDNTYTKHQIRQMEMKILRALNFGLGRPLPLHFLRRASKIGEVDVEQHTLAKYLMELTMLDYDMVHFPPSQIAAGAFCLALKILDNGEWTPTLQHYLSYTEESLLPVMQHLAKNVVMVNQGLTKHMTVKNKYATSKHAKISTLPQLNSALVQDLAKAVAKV
Description: as §1, §2, §3, §4

[1] = tested on: HCT116, a colorectal carcinoma cell line; experiment: Tetrazolium dye (MTT) proliferation assay; type: cell-based; conditions: Homo sapiens, HCT-116; HCT116 cells, inhibition of cell proliferation
Description: Proliferation was evaluated by the tetrazolium dye assay according to the procedure of Denizot and Lang (Denizot, F. and Lang, R. J Immunol Methods 1986, 89, 271–277). The cell line used was HCT116, a colorectal carcinoma cell line obtained from the American Type Cell Culture Collection (ATCC; Rockville, Md.). The cells were grown in McCoy's 5A medium supplemented with 10% FCS and L-glutamine.
Cells were plated at the appropriate seeding density to give logarithmic growth over the course of the assay in a 96-well tissue culture plate. Plates were incubated overnight at 37° C. in a humidified incubator with 5% CO2. The next day, test compounds were serially diluted to four times the final concentration in the appropriate medium containing 1.2% DMSO. One-fourth final volume of each dilution was added in duplicate to the plates containing cells. The same volume of 1.2% DMSO in medium was added to a row of “control wells” such that the final concentration of DMSO in each well was 0.3%. Wells to which no cells were added served as the “blank.” Wells to which no inhibitor was added served as “no inhibitor control.” The plates were) returned to the incubator, and at set time points (determined by their growth curves) plates were analyzed as described below.
3-(4,5-dimethylthiazole-2-yl)-2,5-diphenyl-2H-tetrazolium bromide (thiazolyl blue; MTT; Sigma) was added to each well to yield a final concentration of 1 mg/ml. Plates were returned to the incubator for 2.5–3 hours at 37° C. The MTT-containing medium was removed and the resulting formazan metabolite was solubilized in 100% ethanol with shaking for 15 minutes at room temperature. Absorbance readings were taken in a microtiter plate reader (Dynatech and Molecular Devices plate readers were used interchangeably) at a wavelength of 570 nm with a 650 nm reference. Percent inhibition (% INH) is calculated by subtracting the absorbance of the blank well from all wells, then subtracting the ratio of the average absorbance of each test duplicate (SAVE) by the average of the controls (CAVE) from 1.00. The final number is then multiplied by 100 (% INH=(1.00−SAVE/CAVE)×100). The concentration at which 50% inhibition of cell proliferation is obtained (the IC50) is determined from the linear regression of a plot of the logarithm of the concentration versus percent inhibition.

human cyclin D1-CDK4 = human cyclin D1-CDK4 (Homo sapiens, UniProt P11802); experiment: FlashPlate kinase assay, cyclin D1-CDK4; type: biochemical; conditions: Rb protein substrate, 1 μM ATP, 33P-ATP, 30 minutes room temperature; read-out: CDK4 IC50
Chain of human cyclin D1-CDK4 (P11802 whole entry): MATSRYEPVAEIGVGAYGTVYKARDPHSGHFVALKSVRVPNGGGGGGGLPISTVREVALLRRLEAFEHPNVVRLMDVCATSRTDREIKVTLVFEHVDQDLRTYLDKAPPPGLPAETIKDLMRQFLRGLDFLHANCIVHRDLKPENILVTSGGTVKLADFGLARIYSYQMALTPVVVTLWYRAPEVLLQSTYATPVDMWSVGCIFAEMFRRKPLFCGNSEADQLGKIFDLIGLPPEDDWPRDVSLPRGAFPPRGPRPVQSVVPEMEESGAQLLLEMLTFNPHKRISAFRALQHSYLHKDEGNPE
Chain of human cyclin D1-CDK4 (P24385 whole entry partner): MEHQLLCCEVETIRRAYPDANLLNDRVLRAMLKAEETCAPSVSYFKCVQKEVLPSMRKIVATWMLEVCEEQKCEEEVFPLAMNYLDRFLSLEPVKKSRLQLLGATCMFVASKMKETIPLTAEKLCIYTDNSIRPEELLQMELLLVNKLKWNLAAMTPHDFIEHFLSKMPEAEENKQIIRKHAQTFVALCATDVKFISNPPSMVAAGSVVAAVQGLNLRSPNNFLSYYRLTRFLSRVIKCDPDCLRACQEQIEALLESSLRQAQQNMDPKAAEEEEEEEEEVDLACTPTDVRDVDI
Description: To determine inhibition of Cdk4, Cdk2 and Cdk1 activity, kinase assays were conducted using FlashPlate™ assays (NEN™-Life Science Products). FlashPlate assays were performed using recombinant human cyclin B-CDK1, human cyclin E-CDK2 or human cyclin D1-CDK4 complexes. GST-cyclinE (GST-cycE), CDK2, GST-cyclinB (GST-cycB), CDK1, GST-CDK4 and cyclin D1 (cycD1) cDNA clones in baculovirus vectors were provided by Dr. W. Harper at the Baylor College of Medicine, Houston, Tex.
as §2, §3
[formula] where “test compound” refers to the average counts per minute of the test duplicates, “nonspecific” refers to the average counts per minute when no CyclinD/Cdk4, etc., was added, and “total” refers to the average counts per minute when no compound was added.

SMILES | IC50 (human cyclin E-CDK2) [µM] | IC50 (human cyclin B-CDK1) [µM] | IC50 [1] [µM] | IC50 (human cyclin D1-CDK4) [µM]
CCc1cc(C(=O)c2sc(Nc3ccc(N4CCC(N5CCCC5)CC4)cc3)nc2N)ccc1F [Example 122, {4-Amino-2-[4-(4-pyrrolidin-1-yl-piperidin-1-yl)-phenylamino]-thiazol-5-yl}-(3-ethyl-4-fluoro-phenyl)-methanone] | 5.31 | 5.19 | 4.22 | 0.02
CCNC1CCN(c2ccc(Nc3nc(N)c(C(=O)c4cccc(F)c4)s3)cc2)CC1 [Example 137, {4-Amino-2-[4-(4-ethylamino-piperidin-1-yl)-phenylamino]-thiazol-5-yl}-(3-fluoro-phenyl)-menthanone] |  | 0.385 | 1.4 | 0.032
Nc1nc(Nc2ccc(N3CCC(N4CCCC(O)C4)CC3)cc2)sc1C(=O)c1ccc2c(c1)OCCO2 (stereo not drawn) [Example 38, {4-Amino-2-[4-(3-hydroxy-[1,4′]bipiperidinyl-1′-yl)-phenylamino]-thiazol-5-yl}-(2,3-dihydro-benzo[1,4]dioxin-6-yl)-methanone] |  | 4.05 | 0.015 | 5.26
Cc1cccc(C(=O)c2sc(Nc3ccc(N4CCC(N5CCCCC5)CC4)cc3)nc2N)c1 [Example 111, [4-Amino-2-(4-[1,4′]bipiperidinyl-1′-yl-phenylamino)-thiazol-5-yl]-tolyl-methanone] |  |  | 1.61 | 0.025
Cc1cccc(C(=O)c2sc(Nc3ccc(N4CCC(N(C)C)CC4)cc3)nc2N)c1 [Example 110, {4-Amino-2-[4-(4-dimethylamino-piperidin-1-yl)-phenylamino]-thiazol-5-yl}-tolyl-methanone] |  | 1.99 | 2.7 | 0.025
Nc1nc(Nc2ccc(N3CCC(N4CCOCC4)CC3)cc2)sc1C(=O)c1cccc([N+](=O)[O-])c1 [Example 105, {4-Amino-2-[4-(4-morpholin-4-yl-piperidin-1-yl)-phenylamino]-thiazol-5-yl}-(3-nitro-phenyl)-methanone] | 1.51 | 1.28 |  | 0.039
Nc1nc(Nc2ccc(N3CCC(N4CCCC(O)C4)CC3)cc2)sc1C(=O)c1ccc(Cl)c([N+](=O)[O-])c1 (stereo not drawn) [Example 78, {4-Amino-2-[4-(3-hydroxy-[1,4′]bipiperidinyl-1′-yl)-phenylamino]-thiazol-5-yl}-(4-chloro-3-nitro-phenyl)-methanone] | 3.71 | 2.9 |  | 0.246
Nc1nc(Nc2ccc(N3CCC(N4CCCC4)CC3)cc2)sc1C(=O)c1ccc(Cl)c([N+](=O)[O-])c1 [Example 71, {4-Amino-2-[4-(4-pyrrolidin-1-yl-piperidin-1-yl)-phenylamino]-thiazol-5-yl}-(4-chloro-3-nitro-phenyl)-methanone] | 4.15 | 4.06 |  | 0.162
CCOC(=O)c1cc2ccc(C(=O)c3sc(Nc4ccc(N5CCC(N6CCCC6)CC5)cc4)nc3N)cc2[nH]1 [Example 124] | 4.32 | 11.4 |  | 0.067
Nc1nc(Nc2ccc(N3CCC(N4CCCCC4)CC3)cc2)sc1C(=O)c1cccc(O)c1 [Example 65, [4-Amino-2-(4-[1,4′]bipiperidinyl-1′-yl-phenylamino)-thiazol-5-yl]-(3-hydroxy-phenyl)-methanone] | 3.39 | 1.44 |  | 0.018
CN(C)C1CCN(c2ccc(Nc3nc(N)c(C(=O)c4ccc(Cl)c(Cl)c4)s3)cc2)CC1 [Example 85, {4-Amino-2-[4-(4-dimethylamino-piperidin-1-yl)-phenylamino]-thiazol-5-yl}-(3,4-dichloro-phenyl)-methanone] | 2.26 | 0.51 |  | 0.098
Nc1nc(Nc2ccc(N3CCC(N4CCCCC4)CC3)cc2)sc1C(=O)c1cc(F)cc(F)c1 [Example 57, [4-Amino-2-(4-[1,4′]bipiperidinyl-1′-yl-phenylamino)-thiazol-5-yl]-(3,5-difluoro-phenyl)-methanone] | 8.03 | 3.56 |  | 0.086
Nc1nc(Nc2ccc(N3CCC(N4CCCCC4)CC3)cc2)sc1C(=O)c1ccc(O)cc1 [Example 29, [4-Amino-2-(4-[1,4′]bipiperidinyl-1′-yl-phenylamino)-thiazol-5-yl]-(4-hydroxy-phenyl)-methanone] | 3.99 | 1.23 |  | 0.055
Nc1nc(Nc2ccc(N3CCC(N4CCCC4)CC3)cc2)sc1C(=O)c1ccc(F)c(F)c1 [Example 68, {4-Amino-2-[4-(4-pyrrolidin-1-yl-piperidin-1-yl)-phenylamino]-thiazol-5-yl}-(3,4-difluoro-phenyl)-methanone] | 5.95 | 3.85 |  | 0.089
Nc1nc(Nc2ccc(N3CCC(N4CCCC4)CC3)cc2)sc1C(=O)c1cccc(O)c1 [Example 96, {4-Amino-2-[4-(4-pyrrolidin-1-yl-piperidin-1-yl)-phenylamino]-thiazol-5-yl}-(3-hydroxy-phenyl)-methanone] | 4.06 | 1.18 |  | 0.037
CN(C)C1CCN(c2ccc(Nc3nc(N)c(C(=O)c4cc(F)cc(F)c4)s3)cc2)CC1 [Example 82, {4-Amino-2-[4-(4-dimethylamino-piperidin-1-yl)-phenylamino]-thiazol-5-yl}-(3,5-difluoro-phenyl)-methanone] | 7.84 | 4.27 |  | 0.084
